“And” between values parts separate entries of the source, which are not always exact repeats. Equal values may be shown once.
System: Angiotensin II (AII) vasopressor response
Assay: AII challenge: vasopressor response of angiotensin II in conscious SHR
Assay type: in vivo, rat (Conscious Male Okamoto-Aoki SHR)
Conditions: for % Inhibition / Average Change: SHR n = 2; for Response After AII / Change: single rat, SHR
Excerpt: By administering a compound of this invention to a rat, and then challenging with angiotensin II, a blockage of the vasopressor response is realized.
Conscious Male Okamoto-Aoki SHR, 16-20 weeks old, weighing approximately 330 g are purchased from Charles River Labs (Wilmington, Mass.). Conscious rats are restrained in a supine position with elastic tape. The area at the base of the tail is locally anesthetized by subcutaneous infiltration with 2% procaine. The ventral caudal artery and vein are isolated, and a cannula made of polyethylene (PE) 10-20 tubing (fused together by heat) is passed into the lower abdominal aorta and vena cava, respectively. The cannula is secured, heparinized (1,000 I.U./ml), sealed and the wound is closed. The animals are placed in plastic restraining cages in an upright position. The cannula is attached to a Statham P23Db pressure transducer, and pulsatile blood pressure is recorded to 10-15 minutes with a Gould Brush recorder. (Chan et al., (Drug Development Res., 18:75-94, 1989).
Angiotensin II (human sequence, Sigma Chem. Co., St. Louis, Mo.) of 0.05 and 0.1 ug/kg i.v. is injected into all rats (predosing response). Then a test compound, vehicle or a known angiotensin II antagonist is administered i.v., i.p. or orally to each set of rats. The two doses of angiotensin II are given to each rat again at 30, 60, 90, 120, 180, 240 and 300 minutes post dosing the compound or vehicle. The vasopressor response of angiotensin II is measured for the increase in systolic blood pressure in mmhg. The percentage of antagonism or blockade of the vasopressor response of angiotensin II by a compound is calculated using the vasopressor response (increase in systolic blood pressure) of angiotensin II of each rat predosing the compound as 100%. A compound is considered active if at 30 mg/kg i.v. it antagonized at least 50% of the response.

[1] = 1 mg/kg I.V., AII 0.05 mcg/kg IV, 30 min post dose
[2] = 1 mg/kg I.V., AII 0.05 mcg/kg IV, 60 min post dose
[3] = 1 mg/kg I.V., AII 0.05 mcg/kg IV, 90 min post dose
[4] = 1 mg/kg I.V., AII 0.05 mcg/kg IV, 120 min post dose
[5] = 1 mg/kg I.V., AII 0.05 mcg/kg IV, 180 min post dose
[6] = 1 mg/kg I.V., AII 0.05 mcg/kg IV, 240 min post dose
[7] = 1 mg/kg I.V., AII 0.1 mcg/kg IV, 30 min post dose
[8] = 1 mg/kg I.V., AII 0.1 mcg/kg IV, 60 min post dose
[9] = 1 mg/kg I.V., AII 0.1 mcg/kg IV, 90 min post dose
[10] = 1 mg/kg I.V., AII 0.1 mcg/kg IV, 120 min post dose
[11] = 1 mg/kg I.V., AII 0.1 mcg/kg IV, 180 min post dose
[12] = 1 mg/kg I.V., AII 0.1 mcg/kg IV, 240 min post dose
[13] = 2 mg/kg P.O., AII 0.05 mcg/kg IV, 30 min post dose
[14] = 2 mg/kg P.O., AII 0.05 mcg/kg IV, 60 min post dose
[15] = 2 mg/kg P.O., AII 0.05 mcg/kg IV, 90 min post dose
[16] = 2 mg/kg P.O., AII 0.05 mcg/kg IV, 120 min post dose
[17] = 2 mg/kg P.O., AII 0.05 mcg/kg IV, 180 min post dose
[18] = 2 mg/kg P.O., AII 0.1 mcg/kg IV, 30 min post dose
[19] = 2 mg/kg P.O., AII 0.1 mcg/kg IV, 60 min post dose
[20] = 2 mg/kg P.O., AII 0.1 mcg/kg IV, 90 min post dose
[21] = 2 mg/kg P.O., AII 0.1 mcg/kg IV, 120 min post dose
[22] = 2 mg/kg P.O., AII 0.1 mcg/kg IV, 180 min post dose
[23] = 1 mg/kg I.V., AII 0.05 mcg/kg IV, 30 min post dose, 1 mg/kg
[24] = 1 mg/kg I.V., AII 0.05 mcg/kg IV, 60 min post dose, 1 mg/kg
[25] = 1 mg/kg I.V., AII 0.05 mcg/kg IV, 90 min post dose, 1 mg/kg
[26] = 1 mg/kg I.V., AII 0.05 mcg/kg IV, 180 min post dose, 1 mg/kg
[27] = 1 mg/kg I.V., AII 0.05 mcg/kg IV, 240 min post dose, 1 mg/kg

With `CCCCc1nc2ccc(C(C)(O)CC3CCCN3)cc2c(=O)n1Cc1ccc(-c2ccccc2-c2nnn[nH]2)cc1` (stereo not drawn) [Example 79, CIS-2-Butyl-6-[1-hydroxy-1-methyl-2-(2-pyrrolidinyl)ethyl]-3-[[21-(1H-tetrazol-5-yl)[1,1'-biphenyl]-4-yl]methyl]-4(3H)-quinazolinone] the “% Inhibition” value [1] was 93%, the “Average Change” value [1] was 2.5 mmhg and the “% Inhibition” value [2] was 67%. The “Average Change” value [2] was 12.5 mmhg, the “% Inhibition” value [3] was 53% and the “Average Change” value [3] was 17.5 mmhg. For the same compound, the “% Inhibition” value [4] was 47%, the “Average Change” value [4] was 20 mmhg and the “% Inhibition” value [5] was 53%. For the same compound, the “Average Change” value [5] was 17.5 mmhg, the “% Inhibition” value [6] was 20% and the “Average Change” value [6] was 30 mmhg. The “% Inhibition” value [7] was 76%, the “Average Change” value [7] was 11 mmhg and the “% Inhibition” value [8] was 62%. The “Average Change” value [8] was 17 mmhg, the “% Inhibition” value [9] was 56% and the “Average Change” value [9] was 20 mmhg. The “% Inhibition” value [10] was 39%, the “Average Change” value [10] was 27.5 mmhg and the “% Inhibition” value [11] was 50%. The “Average Change” value [11] was 22.5 mmhg, the “% Inhibition” value [12] was 24% and the “Average Change” value [12] was 34 mmhg. The “% Inhibition” value [13] was 0%, the “Average Change” value [13] was 27.5 mmhg and the “% Inhibition” value [14] was -9%. The “Average Change” value [14] was 30 mmhg, the “% Inhibition” value [15] was 13% and the “Average Change” value [15] was 24 mmhg. For the same compound, the “% Inhibition” value [16] was 15%, the “Average Change” value [16] was 23.5 mmhg and the “% Inhibition” value [17] was 5%. The “Average Change” value [17] was 26 mmhg, the “% Inhibition” value [18] was -9% and the “Average Change” value [18] was 30 mmhg. For the same compound, the “% Inhibition” value [19] was -36%, the “Average Change” value [19] was 37.5 mmhg and the “% Inhibition” value [20] was -55%. The “Average Change” value [20] was 42.5 mmhg, the “% Inhibition” value [21] was -11% and the “Average Change” value [21] was 30.5 mmhg. For the same compound, the “% Inhibition” value [22] was -40%, the “Average Change” value [22] was 38.5 mmhg and the “Response After AII” value [1] was 200 mmhg. For the same compound, the Change [23] was 0 mmhg and 5 mmhg, the “Response After AII” value [23] was 205 mmhg and the “Response After AII” value [2] was 220 mmhg. The Change [24] was 15 mmhg and 10 mmhg, the “Response After AII” value [24] was 205 mmhg and the “Response After AII” value [3] was 220 mmhg. For the same compound, the Change [25] was 15 mmhg and 20 mmhg, the “Response After AII” value [25] was 215 mmhg and the Change [4] was 20 mmhg. The “Response After AII” value [4] was 215 mmhg, the “Response After AII” value [5] was 220 mmhg and the Change [26] was 15 mmhg and 20 mmhg. The “Response After AII” value [26] was 215 mmhg, the Change [27] was 25 mmhg and 35 mmhg and the “Response After AII” value [27] was 220 mmhg and 235 mmhg. The “Response After AII” value [7] was 202 mmhg.

From patent publication US5292734A, “Angiotensin II receptor blocking 2,3,6 substituted quinazolinones” (American Cyanamid Company, priority 1993, dated 1994)
